# Tested on: 596521-263-R-J1-PDC complex spheroids, viability % of control
# Assay: Anticancer human tumor 596521-263-R-J1-PDC patient-derived soft tissue sarcoma cell line growth inhibition [GQUAD]
# Settings: for IC50: curve of first compound; for viability, T/C: stronger effect = lower value
# From the text: DNA G-quadruplex Stabilizer Agents in Combinations in Complex Spheroids
# A high-throughput screen of multi-cell type tumor spheroids was designed to identify active combinations of DNA G-quadruplex stabilizer agents and targeted small molecules. Complex spheroids include a stromal component modeled by human endothelial cells (HUVEC) and fibroblasts modeled by human mesenchymal stem cells (MSCs). The concentration ranges selected for each drug and investigational agent were based upon clinically achievable concentrations if the clinical Cmax of the agent was known.
# Compounds. The drugs and investigational agents: pidnarulex (CX-5461; NSC782164), APTO-253 (NSC789042), BRACO-19 (NSC847499), peposertib (NSC802822), ceralasertib (NSC780249), elimusertib (NSC800525), camonsertib (NSC841442), AZD-1390 (NSC803789), olaparib (NSC753686), talazoparib (NSC767125), ART-558 (NSC835418), sotorasib (NSC818433), MRTX-1133 (NSC836407), SN-38 (NSC673596), topotecan (NSC609699), etoposide (NSC141540), doxorubicin (NSC123127), gemcitabine (NSC613327), 5-fluorouracil (NSC19893), paclitaxel (NSC125973), vemurafenib (NSC761431), panobinostat (NSC761190), R-306465 (JNJ-16241199; NSC773264), adavosertib (NSC754352), TP-3654 (NSC805149), carboplatin (NSC241240), KSQ-4279 (NSC840948), and staurosporine (NSC755774) were obtained from the National Cancer Institute (NCI) Developmental Therapeutics Program Chemical Repository (34). The FDA-approved anticancer drug set is available from the NCI Developmental Therapeutics Program. […] The stock solutions were prepared in dimethyl sulfoxide (DMSO, Sigma-Aldrich, St. Louis, MO, cat. D2650) at 800-fold the tested concentration and stored at -70 degrees C prior to their use. All drugs and investigational agents were tested over a range starting from a high concentration at or near the clinical Cmax and decreasing in half-log increments. If the clinical Cmax for an agent had not been determined, the highest concentration tested was 10 microM.
# 2.3 Cell Culture. All cells were maintained in an incubator at 37 degrees C and 5% CO2 with 95% humidity. The PDC lines were cultured according to standard operating procedures established by the NCI PDMR. All PDCs were thawed and cultured in Matrigel-coated flasks prepared with a working solution of 1X Ham's F-12 nutrient mix, without supplementation (Invitrogen, cat. 11765054), 100 U/mL penicillin-streptomycin (Invitrogen, cat. 15140122), and 2.5% Matrigel (Corning Inc., cat. 354248) for the first three passages. The 857933-349-R-J2-PDC line was cultured in 6C/Colon 1B media, which includes advanced DMEM/F-12 (Thermo Fisher Scientific, cat. 12634028), 10 mM HEPES (Thermo Fisher Scientific, cat. 15630080), 1X GlutaMAX supplement (Thermo Fisher Scientific, cat. 35050061), 0.1 mg/mL primocin (InvivoGen, cat. ant-pm-2), 10% defined fetal bovine serum, heat inactivated (HyClone Laboratories Inc., cat. SH30070.03HI), 50% L-WRN conditioned media (ATCC, cat. CRL-3276), 1.25 mM N-Acetyl-L-cysteine (Sigma-Aldrich, cat. A9165), 10 mM nicotinamide (Sigma-Aldrich, cat. N0636), 1X B-27 supplement (Thermo Fisher Scientific, cat. 17504044), 1X N-2 supplement (Thermo Fisher Scientific, cat. 17502048), 10 microM Y-27632 dihydrochloride (Tocris Bioscience, cat. 1254), and 50 ng/mL human EGF recombinant protein (Thermo Fisher Scientific, cat. PHG0311). The 485176-168-R4-J1-PDC line was cultured in Panc media, which includes all 6C/Colon 1B media components plus 100 ng/mL human FGF-10 (Thermo Fisher Scientific, cat. 100-26), 500 nM SB-431542 (Selleckchem, cat. S1067), and gastrin (Tocris, cat. 3006).
# […]
# 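Further: spheroids exposed to drugs for 7 days before viability reading.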
smiles,measurement,setting,value
COc1ncnc(C2CC2)c1-c1ncc2cnn(Cc3ccc(-c4nc(C(F)(F)F)cn4C(C)C)cc3)c2n1 + CN(C)c1ccc(Nc2c3ccc(NC(=O)CCN4CCCC4)cc3nc3cc(NC(=O)CCN4CCCC4)ccc23)cc1,IC50,second compound 0.0316 µM,> 10 µM
same,IC50,second compound 0.1 µM,> 10 µM
same,IC50,second compound 0.316 µM,> 10 µM
same,IC50,second compound 1 µM,> 10 µM
same,IC50,second compound 3.16 µM,> 10 µM
same,IC50,second compound 10 µM,3.76 µM
same,"viability, T/C","second compound 0.0316 µM, first compound 0.0316 µM",94.8%
same,"viability, T/C","second compound 0.0316 µM, first compound 0.1 µM",100%
same,"viability, T/C","second compound 0.0316 µM, first compound 0.316 µM",92.2%
same,"viability, T/C","second compound 0.0316 µM, first compound 1 µM",104%
same,"viability, T/C","second compound 0.0316 µM, first compound 3.16 µM",90.9%
same,"viability, T/C","second compound 0.0316 µM, first compound 10 µM",97.2%
same,"viability, T/C","second compound 0.1 µM, first compound 0.0316 µM",103%
same,"viability, T/C","second compound 0.1 µM, first compound 0.1 µM",94.7%
same,"viability, T/C","second compound 0.1 µM, first compound 0.316 µM",98.4%
same,"viability, T/C","second compound 0.1 µM, first compound 1 µM",89.8%
same,"viability, T/C","second compound 0.1 µM, first compound 3.16 µM",98.6%
same,"viability, T/C","second compound 0.1 µM, first compound 10 µM",93.5%
same,"viability, T/C","second compound 0.316 µM, first compound 0.0316 µM",103%
same,"viability, T/C","second compound 0.316 µM, first compound 0.1 µM",99.2%
same,"viability, T/C","second compound 0.316 µM, first compound 0.316 µM",101%
same,"viability, T/C","second compound 0.316 µM, first compound 1 µM",106%
same,"viability, T/C","second compound 0.316 µM, first compound 3.16 µM",104%
same,"viability, T/C","second compound 0.316 µM, first compound 10 µM",105%
same,"viability, T/C","second compound 1 µM, first compound 0.0316 µM",95.4%
same,"viability, T/C","second compound 1 µM, first compound 0.1 µM",92.5%
same,"viability, T/C","second compound 1 µM, first compound 0.316 µM",93.5%
same,"viability, T/C","second compound 1 µM, first compound 1 µM",81.1%
same,"viability, T/C","second compound 1 µM, first compound 3.16 µM",108%
same,"viability, T/C","second compound 1 µM, first compound 10 µM",88.3%
same,"viability, T/C","second compound 3.16 µM, first compound 0.0316 µM",89.9%
same,"viability, T/C","second compound 3.16 µM, first compound 0.1 µM",106%
same,"viability, T/C","second compound 3.16 µM, first compound 0.316 µM",87.9%
same,"viability, T/C","second compound 3.16 µM, first compound 1 µM",108%
same,"viability, T/C","second compound 3.16 µM, first compound 3.16 µM",86.6%
same,"viability, T/C","second compound 3.16 µM, first compound 10 µM",72.6%
same,"viability, T/C","second compound 10 µM, first compound 0.0316 µM",63%
same,"viability, T/C","second compound 10 µM, first compound 0.1 µM",57.7%
same,"viability, T/C","second compound 10 µM, first compound 0.316 µM",63.8%
same,"viability, T/C","second compound 10 µM, first compound 1 µM",57%
same,"viability, T/C","second compound 10 µM, first compound 3.16 µM",52%
same,"viability, T/C","second compound 10 µM, first compound 10 µM",38.4%
